# Test results taken from article PMC11904993, “Humanized Candida and NanoBiT Assays Expedite Discovery of Bdf1 Bromodomain Inhibitors With Antifungal Potential” (Advanced Science, 2025).
# Several values for one entry are separate records, joined by “and”; a condition that tells them apart may be missing. Equal entries are not always repeated. Where two headings read alike, the source gives them in different places.
# Experiments:
# CgBdf1 BD1 [1] = molecular target: CgBdf1 BD1 (Candida glabrata, UniProt Q6FWV7); assay: HTRF assay, inhibition of H4ac4 peptide binding; design: species or system C. glabrata; conditions: for IC50: Table S4
# Chain of CgBdf1 BD1 (Candida glabrata, UniProt Q6FWV7) (Q6FWV7 entry or part of it): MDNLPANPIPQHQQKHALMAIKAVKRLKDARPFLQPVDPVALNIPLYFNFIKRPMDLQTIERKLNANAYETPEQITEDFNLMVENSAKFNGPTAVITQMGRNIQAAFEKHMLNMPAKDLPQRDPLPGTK
# CgBdf1 BD2 [2] = molecular target: CgBdf1 BD2 (Candida glabrata, UniProt Q6FWV7); assay: biochemical; format: binding, C. glabrata
# Chain of CgBdf1 BD2 (Candida glabrata, UniProt Q6FWV7) (Q6FWV7 entry or part of it): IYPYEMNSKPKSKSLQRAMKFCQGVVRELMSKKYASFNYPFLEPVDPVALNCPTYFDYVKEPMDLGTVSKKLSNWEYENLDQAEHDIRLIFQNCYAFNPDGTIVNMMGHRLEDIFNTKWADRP
# human Brd4 BD1 = human Brd4 BD1 (Homo sapiens, UniProt O60885); assay: HTRF assay, inhibition of H4ac4 peptide binding; conditions: for %HTRF Signal: Exp1-3
# human Brd4 BD2 = molecular target: T1, human Brd4 BD2 (Homo sapiens, UniProt O60885); assay: HTRF assay, inhibition of H4ac4 peptide binding; conditions: hBrd4 BD2; for %HTRF Signal: Exp1-3
# T1 construct: GST‐tagged BD2 (residues 349–460) from human Brd4 (UniProt ID O60885); purchased Reaction Biology Corp
# CgBdf1 BD1 [3] = assay: Histone peptide array assay; conditions: peptide array signal
# Procedure: (§1) The array was prepared as described in the manufacturer's instructions. […] The array was then washed three times with binding buffer. Anti‐GST antibody (GE Healthcare) was used for the detection of GST‐tagged bromodomains.
# CgBdf1 BD2 [4] = assay: Histone peptide array assay; conditions: peptide array signal
# Procedure: as §1
# [5] = tested on: C. glabrata strains expressing WT and mutant Bdf1; assay: Growth inhibition in liquid media, C. glabrata lab strains; conditions: Exp 1-3, Figure S9A
# Procedure: Growth on Liquid Media with C. glabrata Lab Strains: Cells were grown at 30 °C in SC+M+C‐U medium (SC medium with 5 mM methionine, 0.25 mM cysteine, without uracil) to an OD600 of 0.5–0.8. […] Plates were incubated at 30 °C and OD600 was measured using a Multiskan FC Microplate Photometer (Thermo Fisher).
# [6] = tested on: C. glabrata strains (WT, pdr1∆ or PDR1 rescue); assay: Growth assays to assess compound efflux; format: cell-based; conditions: for growth (Figure S10A): three replicates
# Procedure: Cells from a single colony were diluted in 0.85% NaCl before being counted using a Neubauer chamber. […] The effect of fluconazole was tested by titration on these strains under similar conditions.
# [7] = Fig 1D/2A original data, single experiments Exp1-3
compound,measurement,setting,value
Cn1nccc1C(=O)NCc1ccc(-c2nc(-c3cccs3)no2)s1 [Compound 63],%HTRF Signal,CgBdf1 BD1 [1],92.96% and 94.93% and 114.99%
same,%HTRF Signal,"CgBdf1 BD1 [1]; CgBD1, compound 2.10 nM, Exp1-3",89.22% and 91.15% and 92.46%
same,%HTRF Signal,"CgBdf1 BD1 [1]; CgBD1, compound 13.11 nM, Exp1-3",137.24% and 96.18% and 98.59%
same,%HTRF Signal,"CgBdf1 BD1 [1]; CgBD1, compound 32.77 nM, Exp1-3",89.47% and 88.02% and 93.78%
same,%HTRF Signal,"CgBdf1 BD1 [1]; CgBD1, compound 81.92 nM, Exp1-3",87.12% and 79.28% and 89.90%
same,%HTRF Signal,"CgBdf1 BD1 [1]; CgBD1, compound 204.8 nM, Exp1-3",79.54% and 70.30% and 76.77%
same,%HTRF Signal,"CgBdf1 BD1 [1]; CgBD1, compound 512 nM, Exp1-3",60.42% and 54.51% and 55.50%
same,%HTRF Signal,"CgBdf1 BD1 [1]; CgBD1, compound 1280 nM, Exp1-3",88.32% and 78.12% and 81.58%
same,%HTRF Signal,"CgBdf1 BD1 [1]; CgBD1, compound 3200 nM, Exp1-3",43.73% and 36.43% and 36.08%
same,%HTRF Signal,"CgBdf1 BD1 [1]; CgBD1, compound 8000 nM, Exp1-3",32.25% and 38.09% and 29.97%
same,%HTRF Signal,"CgBdf1 BD1 [1]; CgBD1, compound 20000 nM, Exp1-3",23.85% and 25.61% and 19.76%
same,IC50,"CgBdf1 BD1 [1]; CgBD1, individual experiments Exp1-3, read-out: IC50",0.62 µM and 0.71 µM and 0.5 µM
same,pIC50 CgBD1,CgBdf1 BD1 [1]; [7],6.209 and 6.147 and 6.298
same,IC50,"CgBdf1 BD1 [1]; means ± SD, n=3, read-out: IC50 CgBD1",0.61 ± 0.1 µM
same,%HTRF Signal,CgBdf1 BD2 [2],91.88% and 95.70% and 106.64%
same,pIC50 CgBD2,CgBdf1 BD2 [2],≤ 4
same,%HTRF Signal,"CgBdf1 BD2 [2]; CgBD2, compound 2.10 nM, Exp1-3",86.71% and 109.56% and 96.63%
same,%HTRF Signal,"CgBdf1 BD2 [2]; CgBD2, compound 13.11 nM, Exp1-3",107.12% and 98.52% and 93.70%
same,%HTRF Signal,"CgBdf1 BD2 [2]; CgBD2, compound 32.77 nM, Exp1-3",87.98% and 111.39% and 100.52%
same,%HTRF Signal,"CgBdf1 BD2 [2]; CgBD2, compound 81.92 nM, Exp1-3",93.69% and 107.27% and 99.37%
same,%HTRF Signal,"CgBdf1 BD2 [2]; CgBD2, compound 204.8 nM, Exp1-3",87.47% and 98.47% and 101.59%
same,%HTRF Signal,"CgBdf1 BD2 [2]; CgBD2, compound 512 nM, Exp1-3",94.84% and 95.89% and 102.41%
same,%HTRF Signal,"CgBdf1 BD2 [2]; CgBD2, compound 1280 nM, Exp1-3",108.51% and 97.41% and 103.91%
same,%HTRF Signal,"CgBdf1 BD2 [2]; CgBD2, compound 3200 nM, Exp1-3",96.71% and 89.90% and 106.57%
same,%HTRF Signal,"CgBdf1 BD2 [2]; CgBD2, compound 8000 nM, Exp1-3",101.27% and 103.49% and 103.29%
same,%HTRF Signal,"CgBdf1 BD2 [2]; CgBD2, compound 20000 nM, Exp1-3",98.71% and 85.34% and 94.42%
same,IC50,"CgBdf1 BD2 [2]; CgBD2, individual experiments Exp1-3, Table S4, read-out: IC50",> 20 µM
same,pIC50 hBrd4 BD1,human Brd4 BD1; [7],4.548 and 4.767 and 4.490
same,IC50,"human Brd4 BD1; Table S3, estimate, preliminary single-replicate HTRF assay, read-out: IC50 Brd4 BD1",> 20 µM
same,IC50,"human Brd4 BD1; Table S4, means ± SD, n=3, read-out: IC50 hBrd4 BD1",25.9 ± 7.9 µM
same,%HTRF Signal,"human Brd4 BD1; hBrd4 BD1, compound 2.10 nM",98.36% and 97.75% and 98.52%
same,%HTRF Signal,"human Brd4 BD1; hBrd4 BD1, compound 5.24 nM",96.44% and 101.52% and 99.57%
same,%HTRF Signal,"human Brd4 BD1; hBrd4 BD1, compound 13.11 nM",96.19% and 93.70% and 100.56%
same,%HTRF Signal,"human Brd4 BD1; hBrd4 BD1, compound 32.77 nM",100.99% and 95.89% and 96.28%
same,%HTRF Signal,"human Brd4 BD1; hBrd4 BD1, compound 81.92 nM",95.84% and 103.64% and 102.41%
same,%HTRF Signal,"human Brd4 BD1; hBrd4 BD1, compound 204.8 nM",99.83% and 98.50% and 97.67%
same,%HTRF Signal,"human Brd4 BD1; hBrd4 BD1, compound 512 nM",96.60% and 93.56% and 96.36%
same,%HTRF Signal,"human Brd4 BD1; hBrd4 BD1, compound 1280 nM",82.33% and 98.72% and 104.43%
same,%HTRF Signal,"human Brd4 BD1; hBrd4 BD1, compound 3200 nM",94.57% and 92.75% and 93.44%
same,%HTRF Signal,"human Brd4 BD1; hBrd4 BD1, compound 8000 nM",83.80% and 81.87% and 89.53%
same,%HTRF Signal,"human Brd4 BD1; hBrd4 BD1, compound 20000 nM",44.73% and 68.85% and 53.13%
same,IC50,"human Brd4 BD1; hBrd4 BD1, individual experiments Exp1-3, Table S4, read-out: IC50",17.1 µM and 32.4 µM and 28.3 µM
same,%HTRF Signal,human Brd4 BD2; compound 2.10 nM,99.18% and 94.17% and 90.64%
same,%HTRF Signal,human Brd4 BD2; compound 5.24 nM,99.39% and 99.07% and 97.43%
same,%HTRF Signal,human Brd4 BD2; compound 13.11 nM,98.29% and 101.48% and 93.41%
same,%HTRF Signal,human Brd4 BD2; compound 32.77 nM,93.01% and 99.51% and 101.32%
same,%HTRF Signal,human Brd4 BD2; compound 81.92 nM,102.00% and 98.93% and 106.04%
same,%HTRF Signal,human Brd4 BD2; compound 204.8 nM,100.03% and 105.21% and 104.21%
same,%HTRF Signal,human Brd4 BD2; compound 512 nM,98.01% and 98.41% and 97.72%
same,%HTRF Signal,human Brd4 BD2; compound 1280 nM,99.07% and 96.81% and 100.81%
same,%HTRF Signal,human Brd4 BD2; compound 3200 nM,102.84% and 98.87% and 104.55%
same,%HTRF Signal,human Brd4 BD2; compound 8000 nM,108.22% and 84.57% and 107.59%
same,%HTRF Signal,human Brd4 BD2; compound 20000 nM,102.02% and 76.14% and 105.57%
same,IC50,"human Brd4 BD2; individual experiments Exp1-3, Table S4, read-out: IC50",> 20 µM (2×) and 29.2 µM
same,"Raw data, WT","CgBdf1 BD1 [3]; CgBdf1 BD1 WT, first replicate column",0.003151
same,"Normalized (0 to 100%), WT","CgBdf1 BD1 [3]; CgBdf1 BD1 WT, mean of the two raw values",1.81%
same,"Raw data, WT","CgBdf1 BD1 [3]; CgBdf1 BD1 WT, second replicate column",0.03308
same,"Raw data, YF mutant","CgBdf1 BD1 [3]; CgBdf1 BD1 YF mutant, first replicate column",0.001234
same,"Normalized (0 to 100%), YF mutant","CgBdf1 BD1 [3]; CgBdf1 BD1 YF mutant, mean of the two raw values",0.216%
same,"Raw data, YF mutant","CgBdf1 BD1 [3]; CgBdf1 BD1 YF mutant, second replicate column",0.003085
same,"Raw data, WT","CgBdf1 BD2 [4]; CgBdf1 BD2 WT, first replicate column",0.004055
same,"Normalized (0 to 100%), WT","CgBdf1 BD2 [4]; CgBdf1 BD2 WT, mean of the two raw values",0.593%
same,"Raw data, WT","CgBdf1 BD2 [4]; CgBdf1 BD2 WT, second replicate column",0.007798
same,"Raw data, YF mutant","CgBdf1 BD2 [4]; CgBdf1 BD2 YF mutant, first replicate column",0.009509
same,"Normalized (0 to 100%), YF mutant","CgBdf1 BD2 [4]; CgBdf1 BD2 YF mutant, mean of the two raw values",0.675%
same,"Raw data, YF mutant","CgBdf1 BD2 [4]; CgBdf1 BD2 YF mutant, second replicate column",0.003988
same,OD at 600 nm,[5]; WT BDF1 strain,0.4973 and 0.4763 and 0.4793
same,OD at 600 nm,[5]; bdf1-bd1Δ strain,0.2357 and 0.2187 and 0.2437
same,OD at 600 nm,[5]; bdf1-bd2Δ strain,0.1390 and 0.1480 and 0.1420
OC(Cn1cncn1)(Cn1cncn1)c1ccc(F)cc1F [fluconazole],growth (Figure S10A),"[6]; Cg101 pdr1Δ mut, Fluconazole 0.5 µg/mL",21% and 19% and 15%
same,growth (Figure S10A),"[6]; Cg101 pdr1Δ mut, Fluconazole 1 µg/mL",12% and 11% and 6%
same,growth (Figure S10A),"[6]; Cg101 pdr1Δ mut, Fluconazole 2 µg/mL",6% (2×) and 2%
same,growth (Figure S10A),"[6]; Cg101 pdr1Δ mut, Fluconazole 4 µg/mL",6% and 3% and 2%
same,growth (Figure S10A),"[6]; Cg102 pdr1 rescue, Fluconazole 0.5 µg/mL",55% and 61% and 53%
same,growth (Figure S10A),"[6]; Cg102 pdr1 rescue, Fluconazole 1 µg/mL",36% and 35% and 25%
same,growth (Figure S10A),"[6]; Cg102 pdr1 rescue, Fluconazole 2 µg/mL",14% and 19% and 18%
same,growth (Figure S10A),"[6]; Cg102 pdr1 rescue, Fluconazole 4 µg/mL",5% and 9% and 6%
same,growth (Figure S10A),"[6]; Cg103 PDR1 WT, Fluconazole 0.5 µg/mL",57% and 60% and 48%
same,growth (Figure S10A),"[6]; Cg103 PDR1 WT, Fluconazole 1 µg/mL",24% (2×) and 33%
same,growth (Figure S10A),"[6]; Cg103 PDR1 WT, Fluconazole 2 µg/mL",13% and 12% and 14%
same,growth (Figure S10A),"[6]; Cg103 PDR1 WT, Fluconazole 4 µg/mL",6% and 5% (2×)
same,sensitivity upon deletion of PDR1,"[6]; titration, pdr1Δ versus WT and rescue strains",enhanced
